Read-outs that look alike come from different tables or passages of the source. Some results are limits rather than exact numbers.

In patent US7105553B2, “Thiazolyl amide derivatives” (Bayer Aktiengesellschaft, priority 1999, dated 2006) one finds IC50, ED50 and melting point data, which are given here for 30 molecules.

For data set [1], the system named is HSV-1 F. Briefly: anti-HSV screening test (cytopathogenic effect, fluorescein diacetate read-out), HSV-1 F on Vero cells. The class given is cell-based. As to conditions: read-out: IC50 HSV-1 F/Vero. The method, then: (§1) HSV (HSV-1 Walki, HSV-1F or HSV-2G) was cultivated on Vero cells (ATCC CCL-81) under the following conditions: The cells were grown in M199 medium (5% foetal calf serum, 2 mM glutamine, 100 IU/ml penicillin, 100 μg/ml streptomycin) in cell culture bottles at 37° C. and 5% CO2. The cells were splitted twice per week, in each case 1:4. For the infection, the medium was removed, the cells were washed with Hank's solution, detached using 0.05% trypsin, 0.02% EDTA (Seromed L2143) and incubated at a density of 4×10^5 cells per ml under the abovementioned conditions for 24 hours. The medium was then removed and the virus solution was added at an m.o.i of <0.05 in a volume of 2 ml per 175 cm^2 of surface. The medium was incubated under the conditions mentioned for one hour and then made up to a volume of 50 ml per 175 cm^2 bottle. […] The virus was released by freezing (−80° C.) and thawing (37° C.) the cultures twice. Cell debris was removed by centrifugation (300 g, 10 min, 4° C.) and the supernatant was frozen down in aliquots at −80° C.
(§2) The anti-HSV action was determined in a screening test system in 96-well microtitre plates using various cell lines of neuronal, lymphoid and epithelial origin, such as, for example, Vero (kidney cell line of the green monkey), MEF (murine embryonal fibroblasts), HELF (humane embryonal fibroblasts), NT2 (humane neuronal cell line) or Jurkat (humane lymphoid T-cell line).
(§3) The substances (50 mM), dissolved in DMSO (dimethyl sulphoxide), are examined on microtitre plates (for example 96-well MTP) in final concentrations of 250-0.5 μM (micromolar) in two replications (4 substances/plate). In the case of potent substances, the dilutions are continued for several plates up to 0.5 pM (picomolar). Also examined are toxic and cytostatic effects of the substances. After an appropriate dilution of the substances (1:2) on the microtitre plate in medium, a suspension of cells (1×10^4 cells per well) such as, for example, of Vero cells in M199 (medium 199) with 5% foetal calf serum, 2 mM glutamine and optionally 100 IU/ml penicillin and 100 μg/ml streptomycin or of MEF cells in EMEM (Eagle's Minimum Essential Medium) with 10% foetal calf serum, 2 mM glutamine and optionally 100 IU/ml penicillin and 100 μg/ml streptomycin, or of HELF cells in EMEM with 10% foetal calf serum, 2 mM glutamine and optionally 100 IU/ml penicillin and 100 μg/ml streptomycin, or of NT2- and Jurkat cells in DMEM ([…] glucose plus pyridoxin) with 10% foetal calf serum, 2 mM glutamine, 1 mM sodium pyruvate, non-essential amino acids and optionally 100 IU/ml penicillin and 100 μg/ml streptomycin is added to each well and the cells in the relevant wells are infected with an appropriate amount of virus (HSV-1 F or HSV-2 G having an m.o.i (multiplicity of infection) of 0.0025 for HELF, Vero and MEF cells and an m.o.i of 0.1 for NT2 and Jurkat cells). The plates are then incubated at 37° C. in a CO2 incubator (5% CO2) for several days. […] The plates are initially evaluated visually using a microscope and then analysed using a fluorescent dye. To this end, the cell supernatant of all wells of the MTP is aspirated and the wells are filled with 200 μl of PBS wash solution. The PBS is then aspirated and all the wells are filled with 200 μl of fluorescent dye solution (fluorescein diacetate, 10 μg/ml in PBS). After an incubation time of 30-90 min, the test plates are read in a fluorescence detector at an excitation wavelength of 485 nm and an emission wavelength of 538 nm.

Data set [2] deals with HSV-2 G. As to the kind of experiment: anti-HSV screening test (cytopathogenic effect, fluorescein diacetate read-out), HSV-2 G on Vero cells. The class given is cell-based. As to conditions: read-out: IC50 HSV-2 G/Vero. The procedure:
as §1, §2, §3

For data set [3], the system named is HSV-2. As to the kind of experiment: in-vivo action: survival of intranasally HSV-infected mice. Also noted: species or system mice (BALB/cABom). As to conditions: Human alphaherpesvirus 2; HSV-2, intranasal infection 5×10^4 Pfu, treatment 3 times per day for 5 days from 6 hours after infection; read-out: ED50 (50% of the animals survive at this dose). The procedure:
6 week-old female mice, BALB/cABom strain were obtained from a commercial breeder (Bomholtgard Breeding and Research Centre Ltd.).
The animals were anaesthetized with diethyl ether (Merck) in a sealed glass vessel. 50 μl of a dilution of the virus stock (infection dose 5×10^4 Pfu) were introduced into the nose of the anaesthetized animals using an Eppendorf pipette. In 90-100% of the animals, this infection dose causes death by a generalized infection with prominent respiratory and central-nervous symptoms on average after 5 to 8 days.
6 hours after the infection, the animals were treated with doses of 0.1-100 mg/kg of body mass, 3 times per day, at 7 a.m., 2 p.m. and 7 p.m., for a period of 5 days. The substances were pre-dissolved in DMSO and resuspended in tylose/PBS (Hoechst) (final concentration 1.5% DMSO, 0.5% tylose in PBS).
After the last administration, the animals were monitored further and the time of death was determined.

Setting [4] is: Human alphaherpesvirus 1, Vero cells infected with HSV-1 F, m.o.i. 0.0025, half-maximal fluorescence intensity vs non-infected cell control.
Setting [5] is: Human alphaherpesvirus 2, Vero cells infected with HSV-2 G, m.o.i. 0.0025, half-maximal fluorescence intensity vs non-infected cell control.

Consider `Cc1nc(N(C)C(=O)Cc2ccc(-c3ccccc3F)cc2)sc1S(N)(=O)=O` [Example 57, N-[5-(Aminosulphonyl)-4-methyl-1,3-thiazol-2-yl]-2-(2′-fluoro[1,1′-biphenyl]-4-yl)-N-methylacetamide], for which the IC50 in data set [1] (Human alphaherpesvirus 1, Vero) was under 10 nM; in data set [2] (Human alphaherpesvirus 2, Vero) it was under 10 nM. In addition, the 50% effective dose (ED50) in data set [3] was about 0.7 mg/kg.
As to `Cc1nc(N(C)C(=O)Cc2ccc(-c3ccccn3)cc2)sc1S(N)(=O)=O` [Example 38, N-[5-(Aminosulphonyl)-4-methyl-1,3-thiazol-2-yl]-N-methyl-2-[4-(2-pyridinyl)phenyl]acetamide], the figures for the IC50 in data set [1] (setting [4]) and in data set [2] (setting [5]) were 50 nM and 16 nM, respectively.
Consider `CCOc1ccc(CC(=O)N(C)c2nc(C)c(S(=O)(=O)N(C)C)s2)cc1` [Example 14], for which the melting point came to 154 °C. The IC50 in data set [1] (setting [4]) is 100 nM. Also, in data set [2] (setting [5]), the IC50 is 750 nM.
For the molecule `Cc1nc(N(C)C(=O)Cc2ccc(-n3cccn3)cc2)sc1S(N)(=O)=O` [Example 126, N-[5-(Aminosulphonyl)-4-methyl-1,3-thiazol-2-yl]-N-methyl-2-[4-(1H-pyrazol-1-yl)phenyl]acetamide], the values for the IC50 in data set [1] (setting [4]) and in data set [2] (setting [5]) were 10 nM and 100 nM, respectively.
Molecule `CNS(=O)(=O)c1sc(N(CCN2CCCC2=O)C(=O)Cc2ccc(-c3ccccc3)cc2)nc1C` [Example 23] showed a melting point of 156 °C. Also, the IC50 in data set [1] (setting [4]) turned out to be 30 nM. Besides, the IC50 in data set [2] (setting [5]) turned out to be 100 nM.
For the molecule `Cc1nc(N(C)C(=O)Cc2ccc(-c3cc(F)ccc3F)cc2)sc1S(N)(=O)=O` [Example 87, N-[5-(aminosulphonyl)-4-methyl-1,3-thiazol-2-yl]-2-(2′,5′-difluoro-1,1′-biphenyl-4-yl)-N-methylacetamide], the IC50 in data set [1] (setting [4]) and in data set [2] (setting [5]) was under 10 nM each time.
As for `COCCN(C(=O)Cc1ccc(-c2ccccc2)cc1)c1nc(C)c(S(N)(=O)=O)s1`, the melting point was 163 °C.
On the same count and under the same terms, the same measure for `Cc1nc(N(CCc2ccncc2)C(=O)Cc2ccc(-c3ccccc3)cc2)sc1S(N)(=O)=O`: 204 °C.
The same measure, in the same setting: the same measure for `CNS(=O)(=O)c1sc(N(C)C(=O)Cc2ccc(-c3ccccc3OC(F)(F)F)cc2)nc1C`: 190 °C; for `Cc1nc(N(CCCN2CCCC2=O)C(=O)Cc2ccc(-c3ccccc3)cc2)sc1S(N)(=O)=O`: 203 °C; for `CC(=O)Nc1cccc(-c2ccc(CC(=O)N(C)c3nc(C)c(S(N)(=O)=O)s3)cc2)c1`: 234 °C.
On the same count and under the same terms, then `COc1ccc(F)cc1-c1ccc(CC(=O)N(C)c2nc(C)c(S(N)(=O)=O)s2)cc1`, with 219 °C; and `Cc1nc(N(C)C(=O)Cc2ccc(-c3cnccn3)cc2)sc1S(N)(=O)=O`, with 217 °C; and `Cc1nc(N(C)C(=O)Cc2ccc(-c3ncccc3C(F)(F)F)cc2)sc1S(N)(=O)=O`, with 221 °C.
With `CNS(=O)(=O)c1sc(N(C)C(=O)Cc2ccc(-c3cncnc3)cc2)nc1C`, the melting point turned out to be 193 °C.
Regarding `Cc1nc(N(C)C(=O)Cc2ccc(-c3ncccc3F)cc2)sc1S(N)(=O)=O`, the melting point turned out to be 218 °C.
On the same count and under the same terms, then `Cc1cnc(N)c(-c2ccc(CC(=O)N(C)c3nc(C)c(S(N)(=O)=O)s3)cc2)c1`, with 183 °C.
As to `CNS(=O)(=O)c1sc(N(C)C(=O)Cc2ccc(-c3cc(F)ccc3C)cc2)nc1C` [Example 8], the melting point is 186 °C. For the same molecule, in data set [1] (setting [4]), the IC50 was 100 nM. The IC50 in data set [2] (setting [5]) was 100 nM.
Take `Cc1nc(N(Cc2cccnc2)C(=O)Cc2ccc(-c3ccccc3)cc2)sc1S(N)(=O)=O`: the melting point came out at 189 °C.
Same read-out and setting: then `Cc1nc(N(C)C(=O)Cc2ccc(-c3ccccc3)cc2)sc1S(=O)(=O)NCCO[Si](C)(C)C(C)(C)C`, with 128 °C; and `CNS(=O)(=O)c1sc(N(C)C(=O)C(C)c2ccc(-c3ccccc3)cc2)nc1C` (centres unmarked), with 170 to 172 °C.
Still for that read-out and setting: the same measure for `CNS(=O)(=O)c1sc(N(C)C(=O)Cc2ccc(-c3cncc(C#N)c3)cc2)nc1C`: 130 °C; for `CCCCOc1ccc(CC(=O)N(C)c2nc(C)c(S(=O)(=O)NCCOCC)s2)cc1`: 68 to 70 °C.
Still for that read-out and setting: the same measure for `Cc1nc(N(CCc2ccccc2)C(=O)Cc2ccc(-c3ccccc3)cc2)sc1S(N)(=O)=O`: 174 °C; for `CNS(=O)(=O)c1sc(N(C)C(=O)Cc2ccc(-c3cccnc3)cc2)nc1C.Cl`: 270 °C; for `COCCCN(C(=O)Cc1ccc(-c2ccccc2)cc1)c1nc(C)c(S(N)(=O)=O)s1`: 148 °C.
As for `CNS(=O)(=O)c1sc(N(C)C(=O)Cc2ccc(-c3ncccc3N)cc2)nc1C.Cl`, the melting point came to 160 °C.
On the same count and under the same terms, then `Cc1nc(N(Cc2ccccc2)C(=O)Cc2ccc(-c3ccccc3)cc2)sc1S(N)(=O)=O`, with 154 °C; and `Cc1nc(N(C)C(=O)Cc2ccc(-c3cccc([N+](=O)[O-])c3)cc2)sc1S(=O)(=O)N(C)C`, with 81 °C.
On the same count and under the same terms, the same measure for `Cc1nc(N(C)C(=O)Cc2ccc(-c3ncccc3F)cc2)sc1S(N)(=O)=O.Cl`: 206 °C.
